Reference: patent US20260217697A1, “COMPOUNDS COMPRISING HETEROARYL RINGS AND COMPOSITIONS AND METHODS THEREOF” (lonGen Therapeutics Co., Ltd., priority 2022, published 2026)

The compounds below were run against T1, hTRPV3 (Homo sapiens, UniProt Q8NET8) (assay: Whole-cell patch-clamp recording of hTRPV3 current in transfected HEK293T cells (2-APB induced)). Settings: current induced by 300 μM 2-APB, compounds tested up to 10 μM, room temperature.
T1 construct: The commercially available plasmid with the full-length cDNA of hTRPV3 (791 aa) (NM_001258205.2); host or cells: HEK293T
T1 sequence (Q8NET8 1-791 isoform Q8NET8-2): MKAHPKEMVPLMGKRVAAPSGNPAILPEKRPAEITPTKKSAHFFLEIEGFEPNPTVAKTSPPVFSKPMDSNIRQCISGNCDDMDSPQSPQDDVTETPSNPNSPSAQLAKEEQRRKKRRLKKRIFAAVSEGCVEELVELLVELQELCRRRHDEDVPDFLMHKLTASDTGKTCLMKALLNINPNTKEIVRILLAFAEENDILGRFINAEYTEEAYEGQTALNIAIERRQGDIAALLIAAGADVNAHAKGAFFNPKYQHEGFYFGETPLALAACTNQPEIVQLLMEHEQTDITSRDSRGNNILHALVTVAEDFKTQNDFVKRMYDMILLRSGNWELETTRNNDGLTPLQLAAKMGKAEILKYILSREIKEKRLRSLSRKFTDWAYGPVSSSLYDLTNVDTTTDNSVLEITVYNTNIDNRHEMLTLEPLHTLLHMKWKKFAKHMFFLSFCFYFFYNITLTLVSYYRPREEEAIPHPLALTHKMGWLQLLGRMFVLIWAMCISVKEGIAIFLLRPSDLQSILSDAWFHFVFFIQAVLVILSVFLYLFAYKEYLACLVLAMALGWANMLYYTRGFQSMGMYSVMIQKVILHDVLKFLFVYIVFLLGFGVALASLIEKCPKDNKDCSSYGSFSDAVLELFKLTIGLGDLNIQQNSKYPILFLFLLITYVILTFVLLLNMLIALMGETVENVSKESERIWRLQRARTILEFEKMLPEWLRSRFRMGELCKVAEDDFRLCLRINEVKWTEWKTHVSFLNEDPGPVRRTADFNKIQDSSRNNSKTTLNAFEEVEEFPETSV
Format: cell-based
In short: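 IC50 comes from Hill fits, 0–100% bounds, of percent block of 2-APB-induced current, with compounds perfused at up to 10 μM. Currents elicited at +80/−80 mV (400-ms steps, 2-s interval, 0 mV hold), room temperature, symmetric NaCl/EDTA/HEPES pH 7.4 solutions. Cells: hTRPV3-transfected HEK293T, used 18 h after transfection.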

Row | Structure (SMILES) | IC50 [µM]
1 | CCOC(=O)C1CCC2(CC1)Oc1cc(C(F)(F)F)ccc1-c1nc(NC(=O)c3c(OC)ncnc3OC)sc12 (stereo not drawn) [compound 32, ethyl 2-(4,6-dimethoxypyrimidine-5-carboxamido)-7-(trifluoromethyl)spiro[chromeno[4,3-d]thiazole-4,1′-cyclohexane]-4′-carboxylate] | < 0.1
2 | CCOC(=O)N1CC2(C1)Oc1cc(C(F)(F)F)ccc1-c1nc(NC(=O)c3c(OC)ncnc3OC)sc12 [compound 78, ethyl 2′-(4,6-dimethoxypyrimidine-5-carboxamido)-7′-(trifluoromethyl)spiro[azetidine-3,4′-chromeno[4,3-d]thiazole]-1-carboxylate] | 0.1 to 1
3 | COc1ncnc(OC)c1C(=O)Nc1nc2c(s1)C1(CN(C(=O)OC(C)(C)C)C1)Oc1cc(C(C)C)ccc1-2 [compound 132, tert-butyl 2′-(4,6-dimethoxypyrimidine-5-carboxamido)-7′-isopropylspiro[azetidine-3,4′-chromeno[4,3-d]thiazole]-1-carboxylate] | 0.1 to 1
4 | CCC1(CC)Oc2cc(C(F)(F)F)ccc2-c2nc(NC(=O)c3c(OC)nc(N)nc3OC)sc21 [compound 80, 2-amino-N-(4,4-diethyl-7-(trifluoromethyl)-4H-chromeno[4,3-d]thiazol-2-yl)-4,6-dimethoxypyrimidine-5-carboxamide] | ≥ 10
5 | CCOC(=O)CCCC1(C)Oc2cc(C(F)(F)F)ccc2-c2nc(NC(=O)c3c(OC)ncnc3OC)sc21 (stereo not drawn) [compound 104, ethyl 4-(2-(4,6-dimethoxypyrimidine-5-carboxamido)-4-methyl-7-(trifluoromethyl)-4H-chromeno[4,3-d]thiazol-4-yl)butanoate] | 0.1 to 1
6 | CCC1CCCC2(C1)Oc1cc(C(F)(F)F)ccc1-c1nc(NC(=O)c3c(OC)ncnc3OC)sc12 (stereo not drawn) [compound 38, N-(3′-ethyl-7-(trifluoromethyl)spiro[chromeno[4,3-d]thiazole-4,1′-cyclohexan]-2-yl)-4,6-dimethoxypyrimidine-5-carboxamide] | 0.1 to 1
7 | COc1ncnc(OC)c1C(=O)Nc1nc2c(s1)-c1ccc(C(F)(F)F)cc1OC21CC[S+]([O-])CC1 (stereo not drawn) [compound 95, 4,6-dimethoxy-N-(1′-oxido-7-(trifluoromethyl)-2′,3′,5′,6′-tetrahydrospiro[chromeno[3,4-d]thiazole-4,4′-thiopyran]-2-yl)pyrimidine-5-carboxamide] | 1 to 10
8 | CCC1(CC)Oc2cc(C(C)(C)O)ccc2-c2nc(NC(=O)c3c(OC)ncnc3OC)sc21 [compound 61, N-(4,4-diethyl-7-(2-hydroxypropan-2-yl)-4H-chromeno[4,3-d]thiazol-2-yl)-4,6-dimethoxypyrimidine-5-carboxamide] | 1 to 10
9 | COc1ncnc(OC)c1C(=O)Nc1nc2c(ccc3cc(C#N)ccc32)s1 [compound 71, N-(7-cyanonaphtho[1,2-d]thiazol-2-yl)-4,6-dimethoxypyrimidine-5-carboxamide] | ≥ 10
10 | CCC1(CC)Oc2cc(C(F)(F)F)ccc2-c2nc(NC(=O)c3c(C)ncnc3OC)sc21 [compound 57, N-(4,4-diethyl-7-(trifluoromethyl)-4H-chromeno[4,3-d]thiazol-2-yl)-4-methoxy-6-methylpyrimidine-5-carboxamide] | 0.1 to 1
11 | COc1ncnc(OC)c1C(=O)Nc1nc2c(s1)C1(CCC(C(N)=O)CC1)Oc1cc(C(F)(F)F)ccc1-2 (stereo not drawn) [compound 102, 2-(4,6-dimethoxypyrimidine-5-carboxamido)-7-(trifluoromethyl)spiro[chromeno[4,3-d]thiazole-4,1′-cyclohexane]-4′-carboxamide] | ≥ 10
12 | CCC1(CC)Oc2cc(C(F)(F)F)ccc2-c2nc(NCc3c(OC)ncnc3OC)sc21 [compound 110, N-((4,6-dimethoxypyrimidin-5-yl)methyl)-4,4-diethyl-7-(trifluoromethyl)-4H-chromeno[4,3-d]thiazol-2-amine] | 1 to 10
13 | COc1ncnc(OC)c1C(=O)Nc1nc2c(s1)C1(CN(C(=O)OC(C)(C)C)C1)Oc1cnccc1-2 [compound 156, tert-butyl 2′-(4,6-dimethoxypyrimidine-5-carboxamido)spiro[azetidine-3,4′-thiazolo[4′,5′: 4,5]pyrano[2,3-c]pyridine]-1-carboxylate] | 1 to 10
14 | CCC1(CC)Oc2nc(C(F)(F)F)ccc2-c2nc(NC(=O)c3c(OC)ncnc3OC)sc21 [compound 60, N-(4,4-diethyl-7-(trifluoromethyl)-4H-thiazolo[4′,5′: 4,5]pyrano[2,3-b]pyridin-2-yl)-4,6-dimethoxypyrimidine-5-carboxamide] | 0.1 to 1
15 | COc1ncnc(OCCN(C)C)c1C(=O)Nc1nc2c(s1)C1(COC1)Oc1cc(C(C)C)ccc1-2 [compound 147, 4-(2-(dimethylamino)ethoxy)-N-(7-isopropylspiro[chromeno[4,3-d]thiazole-4,3′-oxetan]-2-yl)-6-methoxypyrimidine-5-carboxamide] | 1 to 10

Continued, values first:

Row | IC50 [µM] | Structure (SMILES)
16 | 1 to 10 | COc1ncnc(OC)c1C(=O)Nc1nc2c(s1)C(C)(C)Nc1cc(C(F)(F)F)ccc1-2 [compound 85, N-(4,4-dimethyl-7-(trifluoromethyl)-4,5-dihydrothiazolo[5,4-c]quinolin-2-yl)-4,6-dimethoxypyrimidine-5-carboxamide]
17 | 0.1 to 1 | COc1ncnc(OC)c1C(=O)Nc1nc2c(s1)C1(CN(C(C)C)C1)Oc1cc(C#N)ccc1-2 [compound 148, N-(7′-cyano-1-isopropylspiro[azetidine-3,4′-chromeno[4,3-d]thiazol]-2′-yl)-4,6-dimethoxypyrimidine-5-carboxamide]
18 | < 0.1 | COc1ncnc(OC)c1C(=O)Nc1nc2c(s1)C1(CN(C(C)C)C1)Oc1cc(Br)ccc1-2 [compound 146, N-(7′-bromo-1-isopropylspiro[azetidine-3,4′-chromeno[4,3-d]thiazol]-2′-yl)-4,6-dimethoxypyrimidine-5-carboxamide]
19 | 0.1 to 1 | COc1ncnc(OC)c1C(=O)Nc1nc2c(s1)C1(CCCC1)Oc1cc(C(F)(F)F)ccc1-2 [compound 23, 4,6-dimethoxy-N-(7-(trifluoromethyl)spiro[chromeno[4,3-d]thiazole-4,1′-cyclopentan]-2-yl)pyrimidine-5-carboxamide]
20 | 0.1 to 1 | CCCCOC(=O)N1CC2(C1)Oc1cc(C(F)(F)F)ccc1-c1nc(NC(=O)c3c(OC)ncnc3OC)sc12 [compound 77, butyl 2′-(4,6-dimethoxypyrimidine-5-carboxamido)-7′-(trifluoromethyl)spiro[azetidine-3,4′-chromeno[4,3-d]thiazole]-1-carboxylate]
21 | 0.1 to 1 | COc1ncnc(OC)c1C(=O)Nc1nc2c(s1)C(CCc1ccccc1)Oc1cc(C(F)(F)F)ccc1-2 (stereo not drawn) [compound 29, 4,6-dimethoxy-N-(4-phenethyl-7-(trifluoromethyl)-4H-chromeno[4,3-d]thiazol-2-yl)pyrimidine-5-carboxamide]
22 | 0.1 to 1 | C#Cc1ccc2c(c1)OC(CC)(CC)c1sc(NC(=O)c3c(OC)ncnc3OC)nc1-2 [compound 81, N-(4,4-diethyl-7-ethynyl-4H-chromeno[4,3-d]thiazol-2-yl)-4,6-dimethoxypyrimidine-5-carboxamide]
23 | 0.1 to 1 | CCOC(=O)[C@H]1CC[C@]2(CC1)Oc1cc(Br)ccc1-c1nc(NC(=O)c3c(OC)ncnc3OC)sc12 [compound 128]
24 | 0.1 to 1 | COc1ncnc(OC)c1C(=O)Nc1nc2c(s1)C1(CN(C(=O)OC(C)C)C1)Oc1cc(C(F)(F)F)ccc1-2 [compound 115, isopropyl 2′-(4,6-dimethoxypyrimidine-5-carboxamido)-7′-(trifluoromethyl)spiro[azetidine-3,4′-chromeno[4,3-d]thiazole]-1-carboxylate]
25 | 1 to 10 | COc1ncnc(OC)c1C(=O)Nc1nc2c(s1)C1(CN(C(=O)c3ccco3)C1)Oc1cc(C(F)(F)F)ccc1-2 [compound 76, N-(1-(furan-2-carbonyl)-7′-(trifluoromethyl)spiro[azetidine-3,4′-chromeno[4,3-d]thiazol]-2′-yl)-4,6-dimethoxypyrimidine-5-carboxamide]
26 | ≥ 10 | COc1ccc2c(c1)-c1nc(NC(=O)c3c(OC)ncnc3OC)sc1CO2 [compound 17, 4,6-dimethoxy-N-(8-methoxy-4H-chromeno[4,3-d]thiazol-2-yl)pyrimidine-5-carboxamide]
27 | 0.1 to 1 | COc1ncnc(OC)c1C(=O)Nc1nc2c(s1)C(C)(C)N(C)c1cc(C(F)(F)F)ccc1-2 [compound 87, 4,6-dimethoxy-N-(4,4,5-trimethyl-7-(trifluoromethyl)-4,5-dihydrothiazolo[5,4-c]quinolin-2-yl)pyrimidine-5-carboxamide]
